Assay results reported in patent EP0225522A1, “Imidazopyridazine alkene carboxamides, process for their preparation, intermediate products and their preparation” (BAYER AG, priority 1985, dated 1987).

System: männliche Ratten
Experiment: Diuretic and saluretic effect in fasted male rats: urine and electrolyte excretion over 6 hours in metabolism cages
Format: in vivo, Ratten (SPF
Conditions: 100 mg/kg p.o. in 10 ml/kg Tylose-Suspension, excretion over 6 Stunden, fasted male Wistar rats; for K^+ / Na^+: flame photometer
Procedure: Die pharmakologische Wirkung der erfindungsgemäßen Verbindungen wurden nach folgender Testmethode ermittelt: Nüchterne männliche Ratten im Gewicht von 150 bis 250 g (SPF, Wistar, je n=4 Paare) werden mit 10 ml/kg p.o. Tylose-Suspension (0,5 X) als Kontrollen bzw. mit 100 mg/kg p.o. Prüfsubstanz in 10 ml/kg p.o. Tylose-Suspension mittels Schlundsonde behandelt. Die Tiere werden in Stoffwechselkäfige gebracht und die Harn- und Elektrolytauscheidung über 6 Stunden bestimmt (Na^4 und K^4 Bestimmung: IL-Flammenphotometer).

Row | SMILES | Harn | K^+ | Na^+
1 | Cc1ccc2nc(-c3ccccc3)c(/C=C/C(=O)N3CCCCC3)n2n1 [Beispiel 14] | 25 mL/kg | 900 µmol/kg | 2900 µmol/kg
2 | CN1CCN(c2ccc3nc(-c4ccccc4)c(/C=C/C(=O)N4CCCCC4)n3n2)CC1 [Beispiel 33] | 26 mL/kg | 450 µmol/kg | 3400 µmol/kg
3 | CCN(CC)C(=O)/C=C/c1c(-c2ccccc2)nc2ccc(N3CCN(C)CC3)nn12 [Beispiel 35] | 21 mL/kg | 800 µmol/kg | 3100 µmol/kg
